Assays:
FPR2 [1] = biological target: T1, FPR2 (Homo sapiens, UniProt P25090); experiment: Ca2+ mobilization (agonist activity) in FPR2-HL60 cells; conditions: for Ca2+ Mobilization HL60-FPR2 Efficacy: response to 5 nM WKYMVM = 100%
T1 sequence (P25090 1-351): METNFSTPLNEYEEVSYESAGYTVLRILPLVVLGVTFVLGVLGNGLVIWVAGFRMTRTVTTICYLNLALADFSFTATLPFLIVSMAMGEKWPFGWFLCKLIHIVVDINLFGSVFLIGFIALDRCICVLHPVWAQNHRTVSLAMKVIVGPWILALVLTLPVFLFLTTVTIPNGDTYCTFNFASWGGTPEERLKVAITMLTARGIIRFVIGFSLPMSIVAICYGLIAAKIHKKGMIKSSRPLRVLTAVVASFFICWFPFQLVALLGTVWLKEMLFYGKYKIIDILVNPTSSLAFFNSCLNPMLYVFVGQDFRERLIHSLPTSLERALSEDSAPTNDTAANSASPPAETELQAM

[2] = tested on: mouse primary microglial cells; experiment: LDH release assay in primary microglial cells; assay type: cell-based; conditions: 1 μM pretreatment 1 h, then LPS 0.1 μg/mL 24 h
Experimental: (§1) Primary microglial cell cultures were derived from the cortices of 1–2-day-old mouse pups (1pup/1 brain/1 flask). After decapitation, the brains were extracted and immediately placed in cold Hanks’ Balanced Salt Solution (HBSS, Gibco, New York, NY, USA) on ice. The brains were washed at least three times with 7 mL of HBSS and then transferred to 10 mL of fresh culture media consisting of Dulbecco’s Modified Eagle Medium (DMEM) with GlutaMax and high glucose (4.5 g/L) (Gibco, New York, NY, USA) on ice. The tissue was minced and incubated in HBSS containing glucose, bovine serum albumin (BSA; Sigma-Aldrich, St. Louis, MO, USA), and HEPES (Gibco, New York, NY, USA) with 0.025% trypsin at 37 °C for 20 min. The trypsinization was halted by adding DMEM with GlutaMax and high glucose (4.5 g/L) supplemented with 10% heat-inactivated fetal bovine serum (FBS, Gibco, New York, NY, USA). […] The purity of microglial cell cultures was assessed as we have shown previously. […]
LDH release was measured as previously described by as an estimation of cell damage 24 h after LPS treatment. […] Absorbance was measured at 540 nm using an Infinite M200PRO microplate reader (TECAN, Männedorf, Switzerland). The results were normalized to the LDH activity released from vehicle-treated cells (considered as 100%) and expressed as a percentage of the control ± SD.

[3] = tested on: mouse primary microglial cells; experiment: NO release assay (Griess) in primary microglial cells; assay type: cell-based; conditions: for LPS-induced NO production: 1 μM pretreatment 1 h, then LPS 0.1 μg/mL 24 h; for NO levels under basal conditions: 1 μM, no LPS
Experimental: Primary microglial cell cultures were derived from the cortices of 1–2-day-old mouse pups (1pup/1 brain/1 flask). After decapitation, the brains were extracted and immediately placed in cold Hanks’ Balanced Salt Solution (HBSS, Gibco, New York, NY, USA) on ice. The brains were washed at least three times with 7 mL of HBSS and then transferred to 10 mL of fresh culture media consisting of Dulbecco’s Modified Eagle Medium (DMEM) with GlutaMax and high glucose (4.5 g/L) (Gibco, New York, NY, USA) on ice. The tissue was minced and incubated in HBSS containing glucose, bovine serum albumin (BSA; Sigma-Aldrich, St. Louis, MO, USA), and HEPES (Gibco, New York, NY, USA) with 0.025% trypsin at 37 °C for 20 min. The trypsinization was halted by adding DMEM with GlutaMax and high glucose (4.5 g/L) supplemented with 10% heat-inactivated fetal bovine serum (FBS, Gibco, New York, NY, USA). The tissue was then gently triturated to obtain a single-cell suspension. Cells were plated at a density of 3 × 10^5 cells/cm^2 in culture medium composed of DMEM with GlutaMax and high glucose (4.5 g/L), supplemented with 10% heat-inactivated FBS, 100 U/mL penicillin, and 0.1 mg/mL streptomycin (all from Gibco, New York, NY, USA), in poly-L-lysine-coated 75 cm^2 culture flasks. On the ninth day in vitro (maintained at 37 °C, 5% CO2), the flasks were agitated on a horizontal shaker for 1 h at 37 °C and 80 rpm. Following centrifugation, the cells were resuspended in culture medium and seeded at final densities of 1.25 × 10^6 cells/well in 6-well plates, 2 × 10^5 cells/well in 24-well plates, or 4 × 10^4 cells/well in 96-well plates. The purity of microglial cell cultures was assessed as we have shown previously.
Microglia cell cultures were pretreated with the FPR2 agonists 8b (1 µM) or 7b (1 µM) for 1 h and then stimulated with lipopolysaccharide (LPS; 0.1 μg/mL; Escherichia coli 0111:B4; Sigma-Aldrich, St. Louis, MO, USA) for 24 h. The concentration of 1 μM was chosen based on our preliminary data (Supplementary File). Control cultures were treated with the appropriate vehicle. […]
NO (nitrite ion in solution) production from LPS-treated microglial cells was measured using the Griess reaction, as previously described by. After 24 h of treatment, equal volumes of cell culture medium and Griess reagents (Griess A: 0.1% N-1-naphthylethylenediamine dihydrochloride and Griess B: 1% sulfanilamide in 5% phosphoric acid) were combined in a 96-well plate and the absorbance was read at 540 nm using an Infinite M200PRO microplate reader (TECAN, Männedorf, Switzerland). The results were normalized to the NO levels released by vehicle-treated cells (set at 100%) and expressed as a percentage of the control ± SD.

IL-6 = IL-6 ELISA in medium of microglial cultures; assay type: cell-based, mouse; conditions: 1 μM pretreatment 1 h, then LPS 0.1 μg/mL 24 h
Experimental: as §1, with “min.” for “min. The trypsinization was halted by adding DMEM with GlutaMax and high glucose (4.5 g/L) supplemented with 10% heat-inactivated fetal bovine serum (FBS, Gibco, New York, NY, USA).”
To assess the effect of test compounds on IL-18, IL-6, and IL-10 levels, the medium of microglial cell cultures was collected 24 h after LPS treatment. The protein levels of the cytokines IL-18 (Mouse interleukin 18 ELISA kit), IL-6 (Mouse interleukin 6 ELISA kit), and IL-10 (Mouse interleukin 10 ELISA kit; all obtained from FineTest, Wuhan, China) were measured using commercially available enzyme-linked immunosorbent assay kits according to the manufacturer’s instructions. […]

FPR2 [4] = biological target: T1, FPR2; experiment: cell-based

SMILES | fold less potent at FPR2 than the corresponding urea/amide (FPR2 [1]; ratio of FPR2 EC50 vs 3b, 3c or 4b) | Ca2+ Mobilization HL60-FPR2 Efficacy (FPR2 [1]) | LPS-induced cytotoxicity (LDH release) [2] | LPS-induced NO production [3] | NO levels under basal conditions [3] | LPS-induced increase of IL-6 level (IL-6) | EC50 (FPR2 [4])
N#Cc1ccc(C[C@H](NC(=O)Nc2ccc(F)cc2)C(=S)N2CCc3ccccc32)cc1 [7b, (S)-1-[3-(4-Cyanophenyl)-1-(indolin-1-yl)-1-thioxopropan-2-yl]-3-(4-fluorophenyl)urea] | 23 fold | 170% | effectively mitigated | effectively attenuated | neither compound increased NO levels | able to counterbalance the LPS-induced increase | 600 ± 200 nM
N#Cc1ccc(C[C@H](NC(=O)Nc2ccc(Br)cc2)C(=S)N2CCc3ccccc32)cc1 [8b, (S)-1-(4-Bromophenyl)-3-[3-(4-cyanophenyl)-1-(indolin-1-yl)-1-thioxopropan-2-yl]urea] | – | 150% | effectively mitigated | effectively attenuated | neither compound increased NO levels | able to counterbalance the LPS-induced increase | 40 ± 20 nM

Source: publication PMC12291851, “Hydrogen Sulfide (H2S)-Donating Formyl Peptide Receptor 2 (FPR2) Agonists: Design, Synthesis, and Biological Evaluation in Primary Mouse Microglia Culture” (Antioxidants, 2025)
